Source: ChEMBL document CHEMBL1201862, “PubChem BioAssay data set” (2004)
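Test compounds were applied to cells in 96-well plates for 48 hours at 5 doses. GI50 marks 50% less growth.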 The source made the active and inactive calls. No stated cut-off is given here; in the data, active = GI50 up to about 1.1 µM and inactive = higher.

Assays:
Assay in all cases: growth of human tumour cells (NCI), 48 h
U-251 = system: U-251
SF-539 = system: SF-539
LOX IMVI = system: LOX IMVI
HCT-15 = system: HCT-15
Hs-578T = system: Hs-578T
HCT-116 = system: HCT-116
MOLT-4 = system: MOLT-4
PC-3 = system: PC-3
UO-31 = system: UO-31
RPMI-8226 = system: RPMI-8226
HCC 2998 = system: HCC 2998
HOP-92 = system: HOP-92
MDA-MB-435 = system: MDA-MB-435
HT-29 = system: HT-29
SF-295 = system: SF-295
Malme-3M = system: Malme-3M
OVCAR-3 = system: OVCAR-3
HL-60 = system: HL-60
SW-620 = system: SW-620
SN12C = system: SN12C
UACC-257 = system: UACC-257
SK-MEL-5 = system: SK-MEL-5
A498 = system: A498
DU-145 = system: DU-145
K562 = system: K562
NCI/ADR-RES = system: NCI/ADR-RES
MCF7 = system: MCF7
UACC-62 = system: UACC-62
COLO 205 = system: COLO 205
CCRF-CEM = system: CCRF-CEM
KM12 = system: KM12
786-0 = system: 786-0
NCI-H23 = system: NCI-H23
EKVX = system: EKVX
SNB-75 = system: SNB-75
NCI-H226 = system: NCI-H226
SK-OV-3 = system: SK-OV-3
NCI-H522 = system: NCI-H522
SF-268 = system: SF-268
OVCAR-8 = system: OVCAR-8
ACHN = system: ACHN
A549 = system: A549
SNB-19 = system: SNB-19
HOP-62 = system: HOP-62
SR = system: SR
NCI-H460 = system: NCI-H460
RXF 393 = system: RXF 393
TK-10 = system: TK-10
T47D = system: T47D
OVCAR-5 = system: OVCAR-5
MDA-N = system: MDA-N
M14 = system: M14
OVCAR-4 = system: OVCAR-4
SK-MEL-28 = system: SK-MEL-28
MDA-MB-231 = system: MDA-MB-231
IGROV-1 = system: IGROV-1

Cc1ccc2c(c1)C(=O)C1(Cc3ccccc3C1=O)C2 (stereo unspecified)
GI50 (U-251): > 100 µM (inactive)
GI50 (SF-539): > 100 µM (inactive)
GI50 (LOX IMVI): > 100 µM (inactive)
GI50 (HCT-15): > 100 µM
GI50 (Hs-578T): > 100 µM (inactive)
GI50 (HCT-116): > 100 µM (inactive)
GI50 (MOLT-4): > 100 µM (inactive)
GI50 (PC-3): > 100 µM (inactive)
GI50 (UO-31): 1.86 µM (inactive)
GI50 (RPMI-8226): > 100 µM (inactive)
GI50 (HCC 2998): > 100 µM (inactive)
GI50 (HOP-92): 30.1 µM (inactive)
GI50 (MDA-MB-435): > 100 µM (inactive)
GI50 (HT-29): > 100 µM (inactive)
GI50 (SF-295): > 100 µM (inactive)
GI50 (Malme-3M): > 100 µM (inactive)
GI50 (OVCAR-3): > 100 µM (inactive)
GI50 (HL-60): > 100 µM (inactive)
GI50 (SW-620): > 100 µM (inactive)
GI50 (SN12C): > 100 µM (inactive)
GI50 (UACC-257): > 100 µM (inactive)
GI50 (SK-MEL-5): > 100 µM (inactive)
GI50 (A498): > 100 µM (inactive)
GI50 (DU-145): > 100 µM (inactive)
GI50 (K562): > 100 µM (inactive)
GI50 (NCI/ADR-RES): > 100 µM (inactive)
GI50 (MCF7): > 100 µM (inactive)
GI50 (UACC-62): 28.9 µM (inactive)
GI50 (COLO 205): > 100 µM (inactive)
GI50 (CCRF-CEM): > 100 µM (inactive)
GI50 (KM12): > 100 µM (inactive)
GI50 (786-0): > 100 µM (inactive)
GI50 (NCI-H23): > 100 µM (inactive)
GI50 (EKVX): > 100 µM (inactive)
GI50 (SNB-75): 67.1 µM (inactive)
GI50 (NCI-H226): > 100 µM (inactive)
GI50 (SK-OV-3): 31.2 µM (inactive)
GI50 (NCI-H522): > 100 µM (inactive)
GI50 (SF-268): > 100 µM (inactive)
GI50 (OVCAR-8): > 100 µM (inactive)
GI50 (ACHN): > 100 µM (inactive)
GI50 (A549): > 100 µM (inactive)
GI50 (SNB-19): > 100 µM (inactive)
GI50 (HOP-62): 47 µM (inactive)
GI50 (SR): > 100 µM (inactive)
GI50 (NCI-H460): > 100 µM (inactive)
GI50 (RXF 393): 47 µM (inactive)
GI50 (TK-10): > 100 µM (inactive)
GI50 (T47D): > 100 µM (inactive)
GI50 (OVCAR-5): > 100 µM (inactive)
GI50 (MDA-N): > 100 µM (inactive)
GI50 (M14): > 100 µM (inactive)
GI50 (OVCAR-4): > 100 µM (inactive)
GI50 (SK-MEL-28): > 100 µM (inactive)
GI50 (MDA-MB-231): > 100 µM (inactive)
GI50 (IGROV-1): > 100 µM (inactive)
